Measured values published in patent publication US20200190101A1, “Composition Containing Novel Glutamic Acid Derivative And Block Copolymer, And Use Thereof” (Nippon Kayaku Kabushiki Kaisha, priority 2015, published 2020).

Assays:
[1] = system: γ-glutamyl transpeptidase (GGT); assay: γ-Glutamyl transpeptidase (GGT) enzyme recognition test; assay type: biochemical; details: 2 mM PBS solution + 2 U/mL GGT solution, 37° C.; for Residual ratio of unchanged drug: HPLC
Experimental: To 0.150 mL of this doxorubicin-bonded glutamic acid derivative (prodrug) PBS solution, 0.150 mL of a 2 U/mL GGT solution obtained by dissolving GGT (0.22 mg, 8 U/mg) (Sigma-Aldrich Company) in PBS (0.880 mL) was added, and the mixture was allowed to react at 37° C.
The reaction liquid was analyzed by HPLC, and thus the residual ratio of the doxorubicin-bonded glutamic acid derivative (prodrug) and the production ratio of doxorubicin were determined.
To 0.100 mL of the doxorubicin-bonded glutamic acid derivative PBS solution, 0.100 mL of a 2 U/mL GGT solution obtained by dissolving GGT (0.38 mg, 8 U/mg) (Sigma-Aldrich Company) in PBS (1.520 mL) was added, and the mixture was allowed to react at 37° C. […]

[2] = Test on pharmacokinetics of Synthesis Example 1 (tissue concentrations, OS-RC-2 tumor-bearing mice); assay type: in vivo, SCID mice; details: for Unchanged drug concentration: value after 5 minutes, 5 mg/kg in terms of doxorubicin i.v.
Experimental: Human renal cell cancer OS-RC-2 tumors that had been subcutaneously subcultured in SCID mice were produced into blocks that measured about 2 mm on each side, and the blocks were subcutaneously transplanted into SCID mice using a trocar.
At time points of 5 minutes, 3 hours, and 24 hours after the administration, various tissues such as blood plasma, heart, liver, bone marrow, and tumor were collected under ether anesthesia.

[3] = system: human renal cell cancer OS-RC-2 tumors; assay: Test on antitumor effect of Synthesis Example 1, OS-RC-2 tumors; assay type: in vivo, SCID mice; details: two times at an interval of 14 days
Experimental: By an operation similar to that of Test Example 12, human renal cell cancer OS-RC-2 tumors were subcutaneously transplanted into SCID mice, and tumor engraftment was confirmed.
After the administration, the major axis (L) and the minor axis (W) of a tumor were measured using calipers at an interval of 2 to 3 days, the tumor volume was calculated by the formula: (L×W^2)/2, and the tumor volume change rate from the administration initiation day was determined.

[4] = system: OS-RC-2 cells having high GGT activity; assay: cells; assay type: cell-based, human; details: Homo sapiens; OS-RC-2 cells, 10 μM, 6 hours exposure then 3 days incubation; read-out: Cell proliferation inhibitory activity
Experimental: After the cells were incubated for 6 hours, the interior of the wells was washed, and after the cells were further incubated for 3 days, the cells were immobilized with methanol and stained using Methylene Blue dye. After staining, the dye was extracted with a 0.3% aqueous solution of hydrochloric acid was extracted, and the light absorbance at 660 nm was measured. For the light absorbance thus obtained, the cell proliferation suppressive activity was evaluated based on the reduction ratio for the light absorbance measured from cells to which the compound was not added.
By a similar operation, the cell proliferation suppressive activity was evaluated from the light absorbance, using doxorubicin that was not converted to a glutamic acid derivative. The results are shown in FIG. 1 (OS-RC-2 cells having high GGT activity) and FIG. 2 (SK-OV-3 cells having low GGT activity).
The cell proliferation inhibitory activity of the EHC-bonded glutamic acid derivative according to Synthesis Example 6 was evaluated using OS-RC-2 cells (RIKEN BioResource Center), which are known to have high GGT activity, and SK-OV-3 cells (American Type Culture Collection), which are known to have low GGT activity.
On a 96-well plate, OS-RC-2 cells having high GGT activity and SK-OV-3 cells having low GGT activity were each inoculated in an amount of 4,000 cells/well and were incubated for one day at 37° C. and 5% CO2, and then the EHC prodrug according to Synthesis Example 6 was added to the cells at a final concentration of 0.0001 to 1 μM. After the cells were incubated for 6 hours, the interior of the wells was washed, and the cells were further incubated for 3 days. After the incubation, the cells were immobilized with methanol and were stained using Methylene Blue dye. After staining, the dye was extracted with a 0.3% aqueous solution of hydrochloric acid, and the light absorbance at 660 nm was measured. The cell proliferation suppressive activity was evaluated based on the reduction ratio for the light absorbance thus obtained, with respect to the light absorbance measured from cells to which the compound was not added.
By a similar operation, EHC, which was an active ingredient of Synthesis Example 6, was used without modification, and the cell proliferation suppressive activity was evaluated from the light absorbance.

[5] = Phosphate buffered physiological saline (PBS) solution stability test; assay type: physicochemical; details: PBS, 37° C., after 6.5 hours, HPLC
Experimental: 0.148 mL of the doxorubicin-bonded glutamic acid derivative PBS solution was dissolved in 0.148 mL of a PBS solution, and the solution was allowed to react at 37° C.
PBS (0.100 mL) was added to the EHC-bonded glutamic acid derivative solution (0.100 mL), and the mixture was allowed to react at 37° C. The reaction liquid was analyzed by HPLC, and thereby the residual ratio of the EHC-bonded glutamic acid derivative was determined.
PBS (0.117 mL) was added to the camptothecin-bonded glutamic acid derivative solution (0.117 mL), and the mixture was allowed to react at 37° C. The reaction liquid was analyzed by HPLC, and thereby the residual ratio of the glutamic acid derivative was determined.
The reaction liquid was analyzed by HPLC, and thereby the residual ratio of the EHC-bonded glutamic acid derivative was determined.

[6] = Test on pharmacokinetics of Example 1 (blood plasma); assay type: in vivo, mice; details: mouse, iv, 10 mg/kg in terms of DXR i.v., read-out: AUC0-6 hr. Unchanged drug (DXR prodrug)
Experimental: At time points of 5 minutes, 1 hour, 3 hours, and 6 hours after administration, blood plasma was collected under ether anesthesia.

SMILES: COc1cccc2c1C(=O)c1c(O)c3c(c(O)c1C2=O)C[C@@](O)(C(=O)CO)CC3OC1CC(NC(=O)OCc2ccc(NC(=O)CCC(N)C(=O)O)cc2)C(O)C(C)O1 (stereo partly drawn) [Synthesis Example 1, (((4-((S)-4-amino-4-carboxybutanamide)benzyl)oxy)carbonyl)doxorubicin]
- Doxorubicin production rate ([1]; reaction time 0 hr): 0%
- Residual ratio of unchanged drug ([1]; reaction time 0 hr): 100%
- Doxorubicin production rate ([1]; reaction time 1 hr): 49%
- Residual ratio of unchanged drug ([1]; reaction time 1 hr): 39%
- Doxorubicin production rate ([1]; reaction time 6.5 hr): 98%
- Residual ratio of unchanged drug ([1]; reaction time 6.5 hr): 1%
- Unchanged drug concentration ([2]; Blood plasma): 9.36 μg/mL or g
- Unchanged drug concentration ([2]; Bone marrow): 0.336 μg/mL or g
- Unchanged drug concentration ([2]; Heart): 1.63 μg/mL or g
- Unchanged drug concentration ([2]; Liver): 60.6 μg/mL or g
- Unchanged drug concentration ([2]; Tumor): 0.192 μg/mL or g
- Concentration of doxorubicin produced, compared to doxorubicin hydrochloride ([2]; blood plasma, liver, bone marrow, and heart (GGT expressed at a low level)): low
- Concentration of doxorubicin produced, compared to doxorubicin hydrochloride ([2]; tumor (GGT expressed at a high level)): high
- Antitumor effect (relative tumor volume) versus control drug ([3]; 20 mg/kg-administered group, i.v.): antitumor effect that was equal to the effect of the doxorubicin hydrochloride-administered group (5 mg/kg)
- Antitumor effect (relative tumor volume) ([3]; 5 or 20 mg/kg i.v.): dose-dependent antitumor effect
- inhibition at 10 µM [4]: 76%
- Stability in PBS solution (release of doxorubicin) [5]: did not release doxorubicin in a PBS solution and was chemically stable
- AUC(0-t) [6]: 6240 ng·h/mL
